Experimental data taken from the OligoGym collection.
Oligonucleotides are written 5' to 3', each unit as a sugar letter and its base; * is a phosphorothioate linkage, no mark a phosphodiester; rarer units and linkages stand in square brackets, end groups in braces. Plain capitals give the bases only. d = 2'-deoxy (DNA); r = 2'-OH (RNA)

The substances below were run against UBE2E3 (assay: reporter assay of Huesken 2005). Details: siRNA.
Further: test concentration or dose not given here.

Point of comparison: “sense rUrArCrUrUrUrCrCrGrCrArCrCrArGrArArUrCdTdT / antisense rGrArUrUrCrUrGrGrUrGrCrGrGrArArArGrUrAdAdC”, normalised inhibition (eCFP-eYFP dual reporter) 49.2%. Against it:
- sense rArUrUrUrGrUrUrCrCrCrUrUrUrUrGrArCrArGdTdT / antisense rCrUrGrUrCrArArArArGrGrGrArArCrArArArUdAdG — lower, 47.8%
- sense rCrArArArGrGrUrUrUrUrGrCrUrGrUrCrUrArUdTdT / antisense rArUrArGrArCrArGrCrArArArArCrCrUrUrUrGdAdA — higher, 92.4%
- sense rCrArArCrCrCrUrGrCrGrGrArUrCrCrUrCrUrGdTdT / antisense rCrArGrArGrGrArUrCrCrGrCrArGrGrGrUrUrGdCdA — higher, 56.3%
- sense rCrArCrCrArArArCrUrCrUrCrUrArGrCrArArAdTdT / antisense rUrUrUrGrCrUrArGrArGrArGrUrUrUrGrGrUrGdTdT — higher, 84.2%
- sense rCrArCrCrArArArGrGrUrUrArCrUrUrUrCrCrGdTdT / antisense rCrGrGrArArArGrUrArArCrCrUrUrUrGrGrUrGdGdC — higher, 58.8%
- sense rCrArCrUrCrArGrUrArUrUrUrGrArCrCrArArCdTdT / antisense rGrUrUrGrGrUrCrArArArUrArCrUrGrArGrUrGdGdC — higher, 87.1%
- sense rCrArGrUrGrCrUrGrGrGrCrCrUrArArArGrGrAdTdT / antisense rUrCrCrUrUrUrArGrGrCrCrCrArGrCrArCrUrGdCdA — higher, 73.2%
- sense rCrArGrUrGrGrCrArGrUrUrCrArGrArUrGrCrGdTdT / antisense rCrGrCrArUrCrUrGrArArCrUrGrCrCrArCrUrGdCdT — higher, 53%
- sense rCrCrArArArCrUrCrUrCrUrArGrCrArArArArCdTdT / antisense rGrUrUrUrUrGrCrUrArGrArGrArGrUrUrUrGrGdTdG — higher, 69.8%
- sense rCrCrArArCrArGrArGrCrArGrArArCrArCrGrAdTdT / antisense rUrCrGrUrGrUrUrCrUrGrCrUrCrUrGrUrUrGrGdTdC — higher, 88.8%
- sense rCrCrUrCrCrUrCrCrUrArArUrUrGrCrArGrUrGdTdT / antisense rCrArCrUrGrCrArArUrUrArGrGrArGrGrArGrGdAdT — higher, 62.6%
- sense rCrCrUrUrArArArGrArCrArArCrUrGrGrArGrUdTdT / antisense rArCrUrCrCrArGrUrUrGrUrCrUrUrUrArArGrGdAdT — higher, 58.9%
- sense rCrCrUrUrGrArUrCrCrUrCrCrUrCrCrUrArArUdTdT / antisense rArUrUrArGrGrArGrGrArGrGrArUrCrArArGrGdGdT — higher, 81.6%
- sense rCrGrArCrArGrGrArUrArGrCrCrArGrArCrArGdTdT / antisense rCrUrGrUrCrUrGrGrCrUrArUrCrCrUrGrUrCrGdTdG — higher, 78%
- sense rCrGrCrArCrCrArGrArArUrCrUrArUrCrArCrUdTdT / antisense rArGrUrGrArUrArGrArUrUrCrUrGrGrUrGrCrGdGdA — higher, 73.4%
- sense rCrUrCrCrUrArArUrUrGrCrArGrUrGrCrUrGrGdTdT / antisense rCrCrArGrCrArCrUrGrCrArArUrUrArGrGrArGdGdA — higher, 51.1%
- sense rCrUrCrCrUrCrCrUrArArUrUrGrCrArGrUrGrCdTdT / antisense rGrCrArCrUrGrCrArArUrUrArGrGrArGrGrArGdGdA — lower, 34.3%
- sense rCrUrGrGrArGrUrCrCrCrGrCrUrUrUrGrArCrUdTdT / antisense rArGrUrCrArArArGrCrGrGrGrArCrUrCrCrArGdTdT — higher, 72%
- sense rCrUrGrUrArUrArUrGrArArGrGrUrGrGrUrGrUdTdT / antisense rArCrArCrCrArCrCrUrUrCrArUrArUrArCrArGdAdA — lower, 36.8%
- sense rCrUrUrGrGrUrCrCrArCrCrGrGrGrUrUrCrUrGdTdT / antisense rCrArGrArArCrCrCrGrGrUrGrGrArCrCrArArGdTdA — higher, 68.4%
- sense rGrArArGrGrArGrCrUrArGrCrUrGrArArArUrAdTdT / antisense rUrArUrUrUrCrArGrCrUrArGrCrUrCrCrUrUrCdTdG — higher, 88.5%
- sense rGrArCrCrArGrCrGrArGrArCrCrCrArGrCrCrGdTdT / antisense rCrGrGrCrUrGrGrGrUrCrUrCrGrCrUrGrGrUrCdCdG — higher, 54.7%
- sense rGrArUrArUrCrArCrArUrUrUrUrCrArUrCrArGdTdT / antisense rCrUrGrArUrGrArArArArUrGrUrGrArUrArUrCdCdA — higher, 57.6%
- sense rGrCrArArCrArUrCrArArCrArGrUrCrArGrGrGdTdT / antisense rCrCrCrUrGrArCrUrGrUrUrGrArUrGrUrUrGrCdAdG — higher, 66.1%
- sense rGrCrCrArCrUrCrArGrUrArUrUrUrGrArCrCrAdTdT / antisense rUrGrGrUrCrArArArUrArCrUrGrArGrUrGrGrCdTdA — higher, 90.9%
- sense rGrCrGrArGrArCrCrCrArGrCrCrGrCrUrCrCrAdTdT / antisense rUrGrGrArGrCrGrGrCrUrGrGrGrUrCrUrCrGrCdTdG — higher, 69.2%
- sense rGrCrUrGrGrGrCrCrUrArArArGrGrArGrArUrAdTdT / antisense rUrArUrCrUrCrCrUrUrUrArGrGrCrCrCrArGrCdAdC — higher, 67.2%
- sense rGrGrArGrArUrArArCrArUrUrUrArUrGrArArUdTdT / antisense rArUrUrCrArUrArArArUrGrUrUrArUrCrUrCrCdTdT — higher, 75.8%
- sense rGrGrArGrCrUrArGrCrUrGrArArArUrArArCrCdTdT / antisense rGrGrUrUrArUrUrUrCrArGrCrUrArGrCrUrCrCdTdT — higher, 80.5%
- sense rGrGrArGrUrCrArUrCrUrGrUrCrUrGrGrArCrAdTdT / antisense rUrGrUrCrCrArGrArCrArGrArUrGrArCrUrCrCdCdT — higher, 75.6%
- sense rGrGrArGrUrCrCrCrGrCrUrUrUrGrArCrUrArUdTdT / antisense rArUrArGrUrCrArArArGrCrGrGrGrArCrUrCrCdAdG — higher, 69.2%
- sense rGrGrArUrCrCrUrCrUrGrGrUrUrGrGrArArGrCdTdT / antisense rGrCrUrUrCrCrArArCrCrArGrArGrGrArUrCrCdGdC — higher, 59.8%
- sense rGrGrUrUrArCrUrUrUrCrCrGrCrArCrCrArGrAdTdT / antisense rUrCrUrGrGrUrGrCrGrGrArArArGrUrArArCrCdTdT — higher, 91.4%
- sense rGrGrUrUrUrUrGrCrUrGrUrCrUrArUrUrUrGrUdTdT / antisense rArCrArArArUrArGrArCrArGrCrArArArArCrCdTdT — higher, 94.8%
- sense rGrUrCrArGrGrGrArGrUrCrArUrCrUrGrUrCrUdTdT / antisense rArGrArCrArGrArUrGrArCrUrCrCrCrUrGrArCdTdG — higher, 83.4%
- sense rGrUrCrArUrCrUrGrUrCrUrGrGrArCrArUrCrCdTdT / antisense rGrGrArUrGrUrCrCrArGrArCrArGrArUrGrArCdTdC — lower, 43.8%
- sense rGrUrGrCrUrArArArArGrArArUrUrCrArGrArAdTdT / antisense rUrUrCrUrGrArArUrUrCrUrUrUrUrArGrCrArCdTdA — higher, 81.5%
- sense rUrArArArGrArCrArArCrUrGrGrArGrUrCrCrCdTdT / antisense rGrGrGrArCrUrCrCrArGrUrUrGrUrCrUrUrUrAdAdG — lower, 43.8%
- sense rUrArArUrUrGrCrArGrUrGrCrUrGrGrGrCrCrUdTdT / antisense rArGrGrCrCrCrArGrCrArCrUrGrCrArArUrUrAdGdG — lower, 47.3%
- sense rUrArUrGrArArGrGrUrGrGrUrGrUrGrUrUrUrUdTdT / antisense rArArArArCrArCrArCrCrArCrCrUrUrCrArUrAdTdA — higher, 50.1%
- sense rUrArUrUrUrGrUrUrCrCrCrUrUrUrUrGrArCrAdTdT / antisense rUrGrUrCrArArArArGrGrGrArArCrArArArUrAdGdA — lower, 45.2%
- sense rUrCrArArCrArGrUrCrArGrGrGrArGrUrCrArUdTdT / antisense rArUrGrArCrUrCrCrCrUrGrArCrUrGrUrUrGrAdTdG — higher, 74.7%
- sense rUrCrArGrArArGrGrArGrCrUrArGrCrUrGrArAdTdT / antisense rUrUrCrArGrCrUrArGrCrUrCrCrUrUrCrUrGrAdAdT — higher, 87.4%
- sense rUrCrArGrArUrUrArUrCrCrArUrUrUrArArGrCdTdT / antisense rGrCrUrUrArArArUrGrGrArUrArArUrCrUrGrAdTdG — lower, 38.2%
- sense rUrCrArGrGrGrArGrUrCrArUrCrUrGrUrCrUrGdTdT / antisense rCrArGrArCrArGrArUrGrArCrUrCrCrCrUrGrAdCdT — lower, 49%
- sense rUrCrUrCrUrArGrCrArArArArCrCrArCrUrGrCdTdT / antisense rGrCrArGrUrGrGrUrUrUrUrGrCrUrArGrArGrAdGdT — lower, 35.9%
- sense rUrCrUrGrGrArUrArUrCrArCrArUrUrUrUrCrAdTdT / antisense rUrGrArArArArUrGrUrGrArUrArUrCrCrArGrAdAdA — higher, 68.8%
- sense rUrGrArArGrArArCrArArGrArGrGrArArArGrAdTdT / antisense rUrCrUrUrUrCrCrUrCrUrUrGrUrUrCrUrUrCrAdGdG — higher, 89.3%
- sense rUrGrArArUrGrGrArGrArUrCrArArCrUrArUrAdTdT / antisense rUrArUrArGrUrUrGrArUrCrUrCrCrArUrUrCrAdTdA — higher, 90.5%
- sense rUrGrCrGrGrArUrCrCrUrCrUrGrGrUrUrGrGrAdTdT / antisense rUrCrCrArArCrCrArGrArGrGrArUrCrCrGrCrAdGdG — higher, 75.8%
- sense rUrGrCrUrArArGrUrUrArUrCrCrArCrUrArGrUdTdT / antisense rArCrUrArGrUrGrGrArUrArArCrUrUrArGrCrAdGdT — higher, 82.8%
